From US20160022599A1, “System and Method for Fabrication of Uniform Polymer Films Containing Nano and Micro Particles via Continuous Drying Process” (NEW JERSEY INSTITUTE OF TECHNOLOGY, priority 2013, published 2016)
Converted amounts (≈) assume the structure as drawn. Each block holds one compound with its values, some of them ahead of it.

Legend:
[1] = USP IV flow-through cell dissolution of films in SDS solution; assay type: physicochemical
Method: The dissolution experiments were performed by cutting out a ⅜ inch diameter sample of film and placing it into a flow-though cell dissolution apparatus (USP IV, Sotax, Switzerland) while 118 mL (5.4 mg/mL) aqueous SDS passed through cells (internal diameter of 22.6 mm) at a rate of 16 mL per minute. The amount of API dissolved from the film was measured over time until 100% of drug was released.
Dissolution experiments were performed using a flow-through cell dissolution apparatus (USP IV, Sotax, Switzerland) with cells of an internal diameter of 22.6 mm. Films were horizontally positioned in the cells with glass beads (1 mm in diameter) filling up the conical part at the bottom of each cell. Glass microfiber filters (GF/D grade, Whatman, Schenectady, N.Y., USA) were used in the filter-head. The temperature was maintained at 37±0.5° C. and a flow rate of 15 mL/min was used.
During testing, the dissolution medium (20 mM SDS solution, 100 mL) was circulated by pumping it through each cell. Six samples were used and the average drug release and the standard deviation were plotted as a function of time.
The dissolution behavior of the stripfilms made using the blend (HPMC and PVP) strip films containing GF nanoparticles was examined using a flow-through cell dissolution apparatus (USP IV, Sotax, Switzerland) with cells of an internal diameter of 22.6 mm. Six circular film samples (having an area of 0.712 cm^2) were punched out of each film and tested. For each film, six samples were horizontally positioned in the six cells with 6.5 g of glass beads (1 mm in diameter) filling up the conical part at the bottom of each cell. Pall HT Tuffryn Membrane Disc Filters (0.2 μm) were used for this study in the filter-head in each experiment. The temperature was maintained at 37±0.5° C., and a flow rate of 16 ml/min was used. During testing, a 100 ml dissolution medium (SDS solution (5.4 mg/ml)) was circulated by pumping it through each cell. […]

[2] = USP IV flow-through cell dissolution of films in deionized water; assay type: physicochemical; details: DI water media
Method: Therefore, for the present disclosure, a flow-through cell dissolution apparatus (USP 4, Sotax, Switzerland) with cells of an internal diameter of 22.6 mm was employed. Circular film samples (having an area of 0.712 cm^2) were horizontally positioned in the cells with glass beads (1 mm in diameter) filling the top and bottom of each cell. […] The temperature was maintained at 37±0.5° C. and a flow rate of 16 mL/min was used. Dissolution experiments were carried out using two different media. […] For the second case, deionized (DI) water was used as the media. Six samples were used from each film (S-S8) and the average drug release was plotted as a function of time. To better understand the effect of SDIs on rate of drug release from HPMC films, two new formulations were prepared (formulation S7 and S8). In the first case a high molecular weight HPMC (E4M, Dow chemicals) was used to prepare films loaded with GF nanoparticles. In the second a higher concentration of HPMC ([…]) was used to prepare films containing GF nanoparticles (following the same procedure stated above). The percent drug loading and film thickness were kept same as formulations S-S8 and same dissolution testing protocols were followed. The release kinetics of GF from HPMC films was determined by finding the best fit for the release profiles. […]

[3] = cited from earlier work
[4] = cited from earlier work; remark: listed apart in the source
[5] = cited from earlier work; remark: listed apart in the source
[6] = Film disintegration time in water; assay type: physicochemical; details: ⅝ inch diameter film in 10 ml of water; film about 16 micrometer (Example 8)
Method: The drying temperature was kept constant at 60° C. Casting thickness was adjusted to 200 micron thickness using a Doctor blade film applicator. The film was dried for about 30 min, and the dried film thickness was measured to be about 16 micrometer. The disintegration time of dried films was noted by placing a ⅝ inch diameter film in 10 ml of water. The time taken by the film to disintegrate completely was about 10 seconds.

[7] = Drug particle size (laser diffraction / DLS) in suspension and after re-dispersion from films; assay type: physicochemical; details: for d50, Tip Speed: 11.72 m/s / d50, Tip Speed: 14.66 m/s: WSMM, 100 μm media; for median size of suspension after milling of drug alone: no stabilizers
Method: An aliquot of the suspensions was dispersed in a 10 ml stabilizer solution and the particle size of the suspensions was measured using a Beckman Coulter LS13320 after milling. The resulting drug suspensions were mixed with a 10% w/w solution of HPMC E15LV and glycerin in a ratio of 1:1, drug suspension to polymer solution. This suspension was stirred for 3 hours with a dual-propeller mixer (McMaster, Catalog no. 3471K5, Los Angeles, Calif., USA). The particle size of the suspensions was measured after mixing with the polymer solution to check for particle growth.
The term “median size” here refers to the 50% vol. passing size of the cumulative volume distribution in LD and cumulant or z-average mean size in DLS. The griseofulvin particle size above 160 nm was measured in LD and the sizes below were measured using DLS. […] The particle size of un-milled drug suspension (in the presence of stabilizers), was also measured and referred as the 0th minute particle size.
GF nanosuspensions were produced via WSMM utilizing a Microcermill (NETZSCH, Fine particle technology LLC, Exton, Pa.) as per previously described methods and processing conditions. HPMC and SDS were chosen as stabilizers. […] At the end of milling, a sample was taken from the holding tank of the mill and dispersed into 15 mL HPMC-SDS stabilizers solution (using a pipette) and the particle size distribution of GF in the sample was then measured using laser diffraction in Coulter LS13320 (Beckman Coulter, Miami, Fla.).
The particle size distribution of GF was measured in suspensions after milling, after mixing with polymer solutions (S-S8) and from re-dispersed films using a laser diffraction technique. […] The size of SDIs (SSG, CCS and CP) was recorded for three cases: after incorporation into HPMC solution, before and after addition of GF nano-suspension and after film re-dispersion. Film re-dispersion was performed by dissolving a small piece of film (about 0.712 cm^2 in area) into 10 mL DI water followed by vortex mixing for 1 min. The same procedure was also followed for formulations S4-S8. Each experiment was performed in triplicate. […]
Particle size measurement of drug nanoparticles in suspension is described herein. To re-disperse drug particles from films, circular punches of film of about 0.71 cm^2 in area were vortex mixed in 3 mL of DI water for 3-5 minutes.
The particle size distribution of GF in the nano-suspensions was measured by laser diffraction in Coulter LS13320 (Beckman Coulter, Miami, Fla., USA). A sample of the suspension was taken at the end of milling from the holding tank of the mill. The sample was dispersed in 15 ml HPMC-SDS stabilizer solution by stirring with a pipette. The sample was added drop-wise until the polarization intensity differential scattering (PIDS) reached 40%.
The same method was used to measure the particles size of GF nanoparticles re-dispersed in water from films. […] The sample particle size was measured after 10 min of magnetic stirring.

SMILES: NC(=O)N=NC(N)=O [AZD, azodicarbonamide]
dissolution profiles of films with vs without SDS ([1]; SDS media, similarity and difference factors): statistically similar dissolution profiles with and without SDS | dissolution profiles of films with vs without SDS [2]: statistically similar dissolution profiles with and without SDS | Solubility in water at 4° C. [3]: 35.0 µg/mL (≈ 302 µM) | logP ([4]; Table 23): 5.8 | pKa [5]: 3.9

percent griseofulvin dissolved within five minutes ([1]; 0.025 M SDS, about 18 micron HPMC film, 70 nm nanoparticles (Example 8)): about 100% | disintegration time of dried film [6]: about 10 seconds | d50, Tip Speed: 11.72 m/s ([7]; time 0): 21.845 microns | d50, Tip Speed: 14.66 m/s ([7]; time 0): 21.845 microns | d50, Tip Speed: 11.72 m/s ([7]; time 4): 1.378 microns | d50, Tip Speed: 14.66 m/s ([7]; time 4): 0.479 microns | d50, Tip Speed: 11.72 m/s ([7]; time 8): 0.378 microns | d50, Tip Speed: 14.66 m/s ([7]; time 8): 0.267 microns | d50, Tip Speed: 11.72 m/s ([7]; time 16): 0.149 microns | d50, Tip Speed: 14.66 m/s ([7]; time 16): 0.134 microns | d50, Tip Speed: 11.72 m/s ([7]; time 32): 0.122 microns | d50, Tip Speed: 14.66 m/s ([7]; time 32): 0.112 microns | d50, Tip Speed: 11.72 m/s ([7]; time 64): 0.106 microns | d50, Tip Speed: 14.66 m/s ([7]; time 64): 0.087 microns | d50, Tip Speed: 11.72 m/s ([7]; time 120): 0.084 microns | d50, Tip Speed: 14.66 m/s ([7]; time 120): 0.069 microns | d50, Tip Speed: 11.72 m/s ([7]; time 180): 0.069 microns | d50, Tip Speed: 14.66 m/s ([7]; time 180): 0.061 microns | d50, Tip Speed: 11.72 m/s ([7]; time 240): 0.067 microns | d50, Tip Speed: 14.66 m/s ([7]; time 240): 0.064 microns | d50, Tip Speed: 11.72 m/s ([7]; time 300): 0.062 microns | d50, Tip Speed: 14.66 m/s ([7]; time 300): 0.059 microns | d50, Tip Speed: 11.72 m/s ([7]; time 360): 0.060 microns | d50, Tip Speed: 14.66 m/s ([7]; time 360): 0.056 microns | median size of suspension after milling of drug alone [7]: 4 um | final particle size at 360 min of milling ([7]; tip speed 11.72 m/s): 60 nm | final particle size at 360 min of milling ([7]; tip speed 14.66 m/s): 56 nm
SMILES: COC1=CC(=O)C[C@@H](C)[C@]12Oc1c(Cl)c(OC)cc(OC)c1C2=O [GF, griseofulvin]
particle size stability of nanosuspension on storage ([7]; 7 days of storage): the particle size was stable after 7 days of storage | solubility in water ([3]; as quoted): 0.7 µg/mL (≈ 1.98 µM) | partition co-efficient, log P ([4]; as quoted): 1.1

median size of nanoparticles milled in the presence of HPMC alone [7]: 147 nm | median size of suspension after milling of drug alone [7]: 12 um
SMILES: COc1ccc2cc([C@H](C)C(=O)O)ccc2c1 [NPX, naproxen]

% of GF released in 50 minutes ([1]; SDS solution […], FIG. 47): 40%
SMILES: COC1=CC(=O)C[C@@H](C)[C@]12Oc1c(Cl)c(OC)cc(OC)c1C2=O [as received powder, griseofulvin]
